Holding throughout (experiment): capacity of strains to grow in the presence of sulphur dioxide
Common to all, as to assay type: cell-based

In test [1] the test system is Brettanomyces bruxellensis strains of the oenological diploid group. To be noted: 14 days of culture, 17 strains tested. The method, then:
(§1) The 33 strains of Brettanomyces bruxellensis are cultivated in a medium in the absence or the presence of different concentrations of sulphur dioxide SO2 in the culture medium (0 mg/L, 0.2 mg/L, 0.4 mg/L and 0.6 mg/L).
(§2) After 14 days of culture, the capacity of the strains to grow in the different media is evaluated.

Test [2] has as its system Brettanomyces bruxellensis strains of the beer triploid group. To be noted: 14 days of culture, 8 strains tested. As for the experimental part: as §1, §2
Test [3] concerns Brettanomyces bruxellensis strains of the oenological triploid group. To be noted: 14 days of culture, 8 strains tested. As for the experimental part:
as §1, §2

Where [4] appears, read: 0.2 mg/L active SO2 in the culture medium.
Where [5] appears, read: 0.4 mg/L active SO2 in the culture medium.
Setting [6] is: 0.6 mg/L active SO2 in the culture medium.

For `O=S=O` [sulphur dioxide], the “Number of strains with the capacity to grow” value in test [1] (setting [4]) amounted to 6; in test [1] (setting [5]), 1; in test [1] (setting [6]), 0; in test [2] (setting [4]) it was 3; in test [2] (setting [5]) it was 0; in test [2] (setting [6]), 0. The results for the “Number of strains with the capacity to grow” value in test [3] (setting [4]), in test [3] (setting [5]) and in test [3] (setting [6]) were 8, 8 and 4, respectively.

The values are drawn from patent US20180312930A1, “METHOD FOR ANALYZING A SAMPLE TO DETECT THE PRESENCE OF SULPHITE-RESISTANT YEASTS OF THE BRETTANOMYCES BRUXELLENSIS SPECIES AND KIT FOR IMPLEMENTING SAME” (UNIVERSITE DE BORDEAUX, priority 2015, published 2018).
